Experimental data as given in article PMC6199744, “Development of Chemical Proteomics for the Folateome and Analysis of the Kinetoplastid Folateome” (ACS Infectious Diseases, 2018).
Where two headings read alike, the source gives them in different places.

Key:
Type in all cases: binding
[1] = biological target: T1, HeLa cell extract proteins (Homo sapiens, UniProt O43148)
T1 construct: endogenous in cells; host or cells: HeLa cell extract

[2] = biological target: T2, HeLa cell extract proteins (Homo sapiens, UniProt P50502)
T2 construct: endogenous in cells; host or cells: HeLa cell extract
T2 sequence (P50502 1-369): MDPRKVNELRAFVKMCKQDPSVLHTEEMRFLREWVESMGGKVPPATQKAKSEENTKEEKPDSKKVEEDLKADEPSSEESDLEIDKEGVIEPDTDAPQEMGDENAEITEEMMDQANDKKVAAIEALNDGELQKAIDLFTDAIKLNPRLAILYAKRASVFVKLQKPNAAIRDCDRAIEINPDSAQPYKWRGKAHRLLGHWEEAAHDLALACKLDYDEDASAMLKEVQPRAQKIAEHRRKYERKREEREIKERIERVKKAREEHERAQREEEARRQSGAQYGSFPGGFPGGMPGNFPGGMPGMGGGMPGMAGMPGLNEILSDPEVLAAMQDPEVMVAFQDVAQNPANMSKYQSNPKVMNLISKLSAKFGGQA

[3] = biological target: T3, HeLa cell extract proteins (Homo sapiens, UniProt O95429)
T3 construct: endogenous in cells; host or cells: HeLa cell extract
T3 sequence (O95429 1-457): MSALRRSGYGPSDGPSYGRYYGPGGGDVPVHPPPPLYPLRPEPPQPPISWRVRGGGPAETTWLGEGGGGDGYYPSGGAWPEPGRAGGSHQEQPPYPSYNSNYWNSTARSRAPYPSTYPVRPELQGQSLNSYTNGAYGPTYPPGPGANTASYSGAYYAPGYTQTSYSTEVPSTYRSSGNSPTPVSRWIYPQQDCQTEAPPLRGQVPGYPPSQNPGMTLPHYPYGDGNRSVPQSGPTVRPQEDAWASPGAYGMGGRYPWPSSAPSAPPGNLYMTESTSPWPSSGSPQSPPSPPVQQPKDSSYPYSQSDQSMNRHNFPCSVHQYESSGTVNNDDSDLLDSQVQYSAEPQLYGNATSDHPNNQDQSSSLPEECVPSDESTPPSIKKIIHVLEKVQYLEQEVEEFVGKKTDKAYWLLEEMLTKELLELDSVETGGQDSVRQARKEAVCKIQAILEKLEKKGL

[4] = biological target: T4, HeLa cell extract proteins (Homo sapiens, UniProt P26641)
T4 construct: endogenous in cells; host or cells: HeLa cell extract
T4 sequence (P26641 whole entry): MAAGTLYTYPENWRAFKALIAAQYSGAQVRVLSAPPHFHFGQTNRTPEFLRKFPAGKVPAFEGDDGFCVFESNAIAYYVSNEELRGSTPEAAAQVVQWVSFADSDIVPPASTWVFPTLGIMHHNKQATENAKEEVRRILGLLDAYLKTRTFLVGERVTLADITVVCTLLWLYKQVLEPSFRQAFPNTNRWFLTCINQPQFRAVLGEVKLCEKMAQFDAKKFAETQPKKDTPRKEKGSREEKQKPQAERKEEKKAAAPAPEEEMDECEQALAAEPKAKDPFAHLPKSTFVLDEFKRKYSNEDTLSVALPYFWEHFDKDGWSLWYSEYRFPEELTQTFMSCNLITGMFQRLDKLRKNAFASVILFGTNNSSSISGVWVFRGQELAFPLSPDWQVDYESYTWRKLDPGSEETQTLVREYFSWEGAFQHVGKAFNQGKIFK

[5] = biological target: T5, HeLa cell extract proteins (Homo sapiens, UniProt P52597)
T5 construct: endogenous in cells; host or cells: HeLa cell extract
T5 sequence (P52597 1-415): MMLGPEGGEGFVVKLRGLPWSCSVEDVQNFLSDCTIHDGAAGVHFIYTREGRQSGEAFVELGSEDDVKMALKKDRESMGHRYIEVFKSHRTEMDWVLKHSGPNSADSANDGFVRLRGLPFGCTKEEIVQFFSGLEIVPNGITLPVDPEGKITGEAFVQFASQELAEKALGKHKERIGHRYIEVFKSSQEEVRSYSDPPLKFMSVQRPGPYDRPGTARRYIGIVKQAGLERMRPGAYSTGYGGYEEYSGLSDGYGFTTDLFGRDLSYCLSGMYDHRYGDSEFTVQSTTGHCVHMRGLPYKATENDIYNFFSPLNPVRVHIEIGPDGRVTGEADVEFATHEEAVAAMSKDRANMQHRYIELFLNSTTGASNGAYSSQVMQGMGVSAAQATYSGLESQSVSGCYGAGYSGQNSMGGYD

[6] = biological target: T6, HeLa cell extract proteins (Homo sapiens, UniProt P26599)
T6 construct: endogenous in cells; host or cells: HeLa cell extract
T6 sequence (P26599 whole entry): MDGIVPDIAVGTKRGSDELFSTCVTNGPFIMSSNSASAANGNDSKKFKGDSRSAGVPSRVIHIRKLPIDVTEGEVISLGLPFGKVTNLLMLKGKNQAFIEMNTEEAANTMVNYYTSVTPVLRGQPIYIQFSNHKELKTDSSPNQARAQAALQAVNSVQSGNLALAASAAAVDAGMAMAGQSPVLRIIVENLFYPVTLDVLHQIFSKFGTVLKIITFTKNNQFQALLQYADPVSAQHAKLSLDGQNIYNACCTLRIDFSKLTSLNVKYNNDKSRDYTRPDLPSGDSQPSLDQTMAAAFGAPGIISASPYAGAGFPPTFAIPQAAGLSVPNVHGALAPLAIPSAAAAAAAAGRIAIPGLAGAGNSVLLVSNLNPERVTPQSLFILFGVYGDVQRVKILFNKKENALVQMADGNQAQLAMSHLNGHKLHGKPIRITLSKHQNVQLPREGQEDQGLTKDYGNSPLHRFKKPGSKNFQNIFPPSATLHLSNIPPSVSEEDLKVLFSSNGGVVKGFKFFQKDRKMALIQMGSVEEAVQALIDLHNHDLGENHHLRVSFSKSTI

[7] = biological target: T7, HeLa cell extract proteins (Homo sapiens, UniProt Q01813)
T7 construct: endogenous in cells; host or cells: HeLa cell extract
T7 sequence (Q01813 1-784): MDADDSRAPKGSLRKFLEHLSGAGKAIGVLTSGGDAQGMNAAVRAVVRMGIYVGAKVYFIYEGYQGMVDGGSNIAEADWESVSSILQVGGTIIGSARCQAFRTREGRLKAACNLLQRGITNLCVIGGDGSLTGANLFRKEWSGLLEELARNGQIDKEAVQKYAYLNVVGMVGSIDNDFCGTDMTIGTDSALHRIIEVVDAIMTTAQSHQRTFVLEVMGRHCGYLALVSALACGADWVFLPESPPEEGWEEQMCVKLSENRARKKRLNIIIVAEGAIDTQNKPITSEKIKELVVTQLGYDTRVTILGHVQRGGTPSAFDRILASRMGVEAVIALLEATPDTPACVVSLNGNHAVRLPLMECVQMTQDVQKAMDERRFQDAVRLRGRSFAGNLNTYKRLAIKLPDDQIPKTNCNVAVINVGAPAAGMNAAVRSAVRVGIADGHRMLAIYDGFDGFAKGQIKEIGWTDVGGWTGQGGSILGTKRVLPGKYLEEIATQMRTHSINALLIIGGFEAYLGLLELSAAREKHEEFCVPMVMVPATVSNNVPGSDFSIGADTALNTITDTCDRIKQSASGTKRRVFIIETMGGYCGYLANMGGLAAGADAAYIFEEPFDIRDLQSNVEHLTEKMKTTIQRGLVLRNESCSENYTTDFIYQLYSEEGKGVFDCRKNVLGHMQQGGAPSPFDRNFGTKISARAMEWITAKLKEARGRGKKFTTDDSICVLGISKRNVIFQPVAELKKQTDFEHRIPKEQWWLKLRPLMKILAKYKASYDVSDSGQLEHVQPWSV

[8] = biological target: T8, HeLa cell extract proteins (Homo sapiens, UniProt P16070)
T8 construct: endogenous in cells; host or cells: HeLa cell extract
T8 sequence (P16070 21-742): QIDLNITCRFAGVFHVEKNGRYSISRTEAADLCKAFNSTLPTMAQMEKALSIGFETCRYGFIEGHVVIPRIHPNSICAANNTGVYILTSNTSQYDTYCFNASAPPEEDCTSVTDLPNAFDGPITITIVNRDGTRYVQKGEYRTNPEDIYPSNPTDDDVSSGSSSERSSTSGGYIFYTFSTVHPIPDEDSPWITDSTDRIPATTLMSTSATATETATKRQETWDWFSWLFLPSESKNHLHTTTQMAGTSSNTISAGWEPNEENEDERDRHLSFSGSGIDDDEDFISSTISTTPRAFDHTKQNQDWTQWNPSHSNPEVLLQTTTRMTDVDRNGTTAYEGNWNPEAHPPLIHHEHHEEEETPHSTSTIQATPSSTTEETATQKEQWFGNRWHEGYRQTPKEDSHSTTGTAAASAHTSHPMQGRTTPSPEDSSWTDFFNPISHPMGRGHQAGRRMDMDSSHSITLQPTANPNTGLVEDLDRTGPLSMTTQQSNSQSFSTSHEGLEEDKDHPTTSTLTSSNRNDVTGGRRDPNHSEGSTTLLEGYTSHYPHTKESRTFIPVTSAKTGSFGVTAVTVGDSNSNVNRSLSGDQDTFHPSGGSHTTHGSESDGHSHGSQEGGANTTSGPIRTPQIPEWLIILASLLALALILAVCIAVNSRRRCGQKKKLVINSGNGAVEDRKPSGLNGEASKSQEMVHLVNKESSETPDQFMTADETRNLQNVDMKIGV

[9] = biological target: T9, HeLa cell extract proteins (Homo sapiens, UniProt P25787)
T9 construct: endogenous in cells; host or cells: HeLa cell extract
T9 sequence (P25787 1-234): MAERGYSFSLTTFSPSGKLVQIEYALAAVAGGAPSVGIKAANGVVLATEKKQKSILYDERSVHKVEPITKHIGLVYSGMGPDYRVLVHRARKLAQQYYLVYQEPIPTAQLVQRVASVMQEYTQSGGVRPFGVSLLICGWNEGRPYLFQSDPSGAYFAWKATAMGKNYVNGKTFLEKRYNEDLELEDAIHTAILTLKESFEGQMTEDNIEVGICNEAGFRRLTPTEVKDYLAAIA

[10] = HeLa, protein BAG4 (BAG FAMILY MOLECULAR CHAPERONE REGULATOR 4)
[11] = HeLa, protein ST13 (HSC70-INTERACTING PROTEIN.)

T1 sequence (O43148 whole entry): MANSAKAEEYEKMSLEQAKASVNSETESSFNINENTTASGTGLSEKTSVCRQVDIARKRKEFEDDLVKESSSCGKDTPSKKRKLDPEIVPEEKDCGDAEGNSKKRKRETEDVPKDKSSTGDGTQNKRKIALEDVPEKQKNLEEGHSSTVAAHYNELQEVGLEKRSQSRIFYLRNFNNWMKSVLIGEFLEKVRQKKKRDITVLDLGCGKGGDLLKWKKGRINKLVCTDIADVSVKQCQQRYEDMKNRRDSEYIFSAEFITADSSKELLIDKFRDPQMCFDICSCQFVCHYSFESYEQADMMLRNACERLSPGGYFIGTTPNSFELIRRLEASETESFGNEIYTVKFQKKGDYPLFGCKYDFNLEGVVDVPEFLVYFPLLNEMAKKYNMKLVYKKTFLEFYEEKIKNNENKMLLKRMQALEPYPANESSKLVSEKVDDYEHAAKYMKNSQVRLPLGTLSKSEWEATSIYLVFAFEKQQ

SMILES | fold changes relative to vehicle control ([1]; HeLa, captured protein RNMT) | fold changes relative to vehicle control ([2]; protein ST13, HeLa) | fold changes relative to vehicle control [3, 10] | fold changes relative to vehicle control ([4]; HeLa, protein EEF1G) | fold changes relative to vehicle control ([5]; HeLa, captured protein HNRNPF) | fold changes relative to vehicle control ([6]; HeLa, protein PTBP1) | fold changes relative to vehicle control ([7]; HeLa, protein PFKP) | fold changes relative to vehicle control ([8]; protein CD44, HeLa) | fold changes relative to vehicle control ([9]; HeLa, captured protein PSMA2) | fold changes relative to vehicle control ([1]; HeLa, protein RNMT) | fold changes relative to vehicle control [2, 11] [fold] | fold changes relative to vehicle control ([3]; captured protein BAG4, HeLa) | fold changes relative to vehicle control ([4]; protein EEF1G, HeLa) | fold changes relative to vehicle control ([5]; HeLa, protein HNRNPF) | fold changes relative to vehicle control ([6]; protein PTBP1, HeLa) | fold changes relative to vehicle control ([7]; captured protein PFKP, HeLa) | fold changes relative to vehicle control ([9]; protein PSMA2, HeLa) | also measured
Nc1nc2c(c(=O)[nH]1)N(C=O)C(CNc1ccc(C(=O)N[C@@H](CCC(=O)O)C(=O)O)cc1)CN2 (stereo partly drawn) [LEU, leucovorin] | 0.88 | 0.98 | 1.2 | 1 | 0.98 | 0.98 | 0.88 | 1.08 | 0.98 | – | – | – | – | – | – | – | – | –
Nc1nc2[nH]cc(CCc3ccc(C(=O)N[C@@H](CCC(=O)O)C(=O)O)cc3)c2c(=O)[nH]1 [PTX, pemetrexed] | – | – | – | – | – | – | – | – | – | – | – | – | – | – | – | – | – | fold changes relative to vehicle control [1]: 0.83; fold changes relative to vehicle control [2]: 1.12; fold changes relative to vehicle control [3]: 1.05; fold changes relative to vehicle control [4]: 1.05; fold changes relative to vehicle control [5]: 0.87; fold changes relative to vehicle control [6]: 0.95; fold changes relative to vehicle control [7]: 0.9; fold changes relative to vehicle control [8]: 1.04; fold changes relative to vehicle control [9]: 1.02
CCCCCCOc1ccc(Cc2cnc(N)nc2N)cc1 [compound 1] | – | – | – | – | – | – | – | 1.08 | – | 0.92 | 1.44 | 0.99 | 1.31 | 0.95 | 0.97 | 1.05 | 1.14 | –
CCCCCCOc1cccc(Cc2cnc(N)nc2N)c1 [compound 2] | – | – | – | – | – | – | – | 1.42 | – | 0.97 | 2.63 | 0.93 | 1.67 | 0.88 | 1.55 | 1.01 | 1.17 | –
Nc1nc2cccc(-c3ccccc3)c2n1Cc1ccc(Cl)c(Cl)c1 [compound 3] | – | – | – | – | – | – | – | 1.49 | – | 0.93 | 1.09 | 1.25 | 0.94 | 1.36 | 1.08 | 1.02 | 0.95 | –
NCCOCCOCC(=O)Nc1nc2ncc(CNc3ccc(C(=O)NC(CCC(=O)O)C(=O)O)cc3)nc2c(=O)[nH]1 (stereo not drawn) [compound 6] | 0.79 | 1.3 | 1.03 | 1.15 | 0.92 | 1.03 | 0.95 | 1.3 | 1.05 | – | – | – | – | – | – | – | – | –
NCCCNc1ccc(C(=O)NC(CCC(=O)O)C(=O)O)cc1 (stereo not drawn) [compound 7] | 1.02 | 1.04 | 1.12 | 0.94 | 0.95 | 1.05 | 0.93 | 1.06 | 1.02 | – | – | – | – | – | – | – | – | –
